# Measured values published in patent US20130274233A1, “MODULATORS OF HEDGEHOG SIGNALING PATHWAY” (priority 2012, published 2013).
# Key:
# Type in all cases: cell-based
# Smo::EGFP = molecular target: T1, Smo::EGFP (Homo sapiens, UniProt Q99835); assay: High content assay of Shh-induced Smo::EGFP accumulation in the primary cilium (Smo::EGFP/Ivs::tagRFPT NIH/3T3 cells); conditions: 3T3/Smo::GFP/Ivs::tagRFPT cells; stimulus Shh; read-out: IC50, inhibition of Shh-induced Smo::GFP ciliary accumulaton
# T1 construct: expressed in transfected cells
# Description: (§1) NIH/3T3 cells were maintained in DMEM containing 10% (v/v) calf serum, penicillin, streptomycin, and L-glutamine. HEK293, L, cos 7, and suFU−/− mouse embryonic fibroblast cells were maintained in DMEM containing 10% (v/v) fetal bovine serum, penicillin, streptomycin, and L-glutamine. Smo::EGFP, SmoM2::GFP, and Ivs::tagRFPT were cloned into pBabe to generate retroviral particles for infection. Smo::EGFP/Ivs::tagRFPT and SmoM2::GFP/Ivs::tagRFPT stable cell lines were generated through viral infection of NIH/3T3^12. A ShhLightII Gli reporter cell line was obtained from the American Type Culture Collection (ATCC) and used in luciferase reporter assays to measure Hh pathway activity. The cell line contains a stably integrated Gli-responsive Firefly luciferase reporter and a constitutive Renilla luciferase expression construct^33. Subclones expressing Smo or SmoM2 in ShhLightII cells were used for chemical epistasis analyses.
# (§2) Cells were cultured and treated in 384-well imaging plate precoated with poly-D-Lysine (Greiner Bio-one), fixed with 4% paraformaldehyde (Electron Microscopy Sciences), and stained with Hoechst (Invitrogen). Images were collected using Opera High Content Screening System (Perkin Elmer). Activityl)ase (IDBS Inc, Emeryvill, Calif.) and Pipeline Pilot (Accelrys, Inc. San Diego, Calif.) were used for high content screening data management and analysis. Acapella 2.0 software (Evotec Technologies/PerkinElmer) was used to perform multi-parametrical high content image quantification. All the images for comparison were scanned with identical microscopic settings and analyzed with the same input parameters.
# (§3) Acapella 2.0 software (Evotec Technologies/PerkinElmer) was used to perform multi-parametric high content image quantification. Our image analysis script used Ivs::tagREPT to first determine the location of the PC and then Smo::EGFP to quantify the level of Smo present in the cilium.
# The inventors used the spot-finding algorithm in the RFP channel to find Ivs-rich spots. Each non-overlapping spot was based on a maximum 8 pixel-radius (when using a 40× objective) around a central intensity peak of 5 pixels. A distance of at least 10 pixels was required between adjacent spot centers. Spot peaks had to exceed thresholds of relative intensity compared to the remaining body of the spot as well as to the entire image. The average, maximum and total RFP intensity of each spot were measured. The spots with sufficiently high absolute maxima to pass the selected threshold were classified as positive spots. To form candidate cilia, the inventors selected the brightest 15% of the pixels in each positive spot and merged those pixels into objects so that the brightest parts of adjacent spots could form single, larger cilia-shaped objects. To qualify the candidate cilia as true Ivs-positive cilia, the width of the objects created from merging the brightest pixels in each spot had to be at least 2 pixels and the length to half-width ratio had to exceed 3. (i.e. a 3-pixel long by 2-pixel wide cilium was the minimum accepted cilium size and the length had to be at least 1.5 fold of the width). The mean GFP intensity within these Ivs-positive cilia was used to estimate the ciliary level of Smo protein. The inventors subtracted the background of the mean GFP intensity in the 3-pixel wide area around each candidate cilium to avoid some false positives. Those Ivs-positive cilia that exceed the final mean GFP intensity threshold set for each experiment were deemed Smo-positive cilia.
# (§4) Hoechst staining was used to determine the total number of nuclei per well.
# Measurements of the geometry of the cilia as well as the total fluorescent intensities of each cilium in the Smo- and Ivs-channels were used to determine if any of the compounds were having unusual effects on cilia size, intensity or frequency of observation or combinations of all three characteristics.
# Smo = assay: Gli-luciferase reporter induced by Smo::GFP overexpression (Smo/LightII cells); conditions: Mus musculus, Shh Light II; 3T3/Smo::GFP Overexpression/Shh-LightII; stimulus none; read-out: IC50, inhibition of expression of Gli-luciferase reporter induced by Smo::GFP overexpression
# Description: as §1, with “The cell line contains a stably integrated Gli-responsive Firefly luciferase reporter and a constitutive Renilla luciferase expression construct^33. Subclones expressing Smo or SmoM2 in ShhLightII cells were used for chemical epistasis analyses.” left out
# Hh activity assays were performed using ShhLightll cells, Smo/Lightll cells, SmoM2/Lightll cells, and suFU−/− mouse embryonic fibroblasts. In the suFU−/− cells, Hh activity was measured after co-transfection with Gli driven firefly luciferase and TK-renilla luciferase reporters^41. Wnt activity was measured in 293 cells co-transfected with Top-flash and TK-renilla luciferase reporters^42. Cells were cultured and treated in 96 well assay plates (Corning) and incubated with Duo-Glo luciferase substrates (Promega) to measure firefly and renilla luciferase activity sequentially using a Top Count NX Microplate Scintillation and Luminescence Counter (Perkin Elmer). […]
# SmoM2::GFP = molecular target: T2, SmoM2::GFP (Homo sapiens, UniProt Q99835, W535L); assay: Ciliary localization of SmoM2::GFP (3T3/SmoM2::GFP Overexpression/Ivs::tagRFPT)
# T2 construct: expressed in transfected cells
# Description: as §1, §2, §3
# SmoM2 = assay: Gli-luciferase reporter induced by SmoM2::GFP overexpression (SmoM2/LightII cells)
# Description: as §1
# (§5) Hh activity assays were performed using ShhLightll cells, Smo/Lightll cells, SmoM2/Lightll cells, and suFU−/− mouse embryonic fibroblasts. In the suFU−/− cells, Hh activity was measured after co-transfection with Gli driven firefly luciferase and TK-renilla luciferase reporters^41. Wnt activity was measured in 293 cells co-transfected with Top-flash and TK-renilla luciferase reporters^42. Cells were cultured and treated in 96 well assay plates (Corning) and incubated with Duo-Glo luciferase substrates (Promega) to measure firefly and renilla luciferase activity sequentially using a Top Count NX Microplate Scintillation and Luminescence Counter (Perkin Elmer). The renilla luciferase signal was used to normalize the firefly reporter activity.
# (§6) ShhLightII cells and SmoM2/LightII cells were cultured and treated in 96 well assay plates (Corning) and incubated with Duo-Glo luciferase substrates (Promega) to sequentially measure firefly and renilla luciferase activity. Smo, or GFP, expression plasmids were co-transfected into 3T3 cells together with a Gli-responsive firefly reporter and a TK-renilla luciferase reporter contruct to monitor effects of Smo overexpression. Co-transfection of the two reporter constructs was conducted in assays measuring Hh pathway activity in suFU−/− cells. Wnt activity was measured following co-transfection of a Top-flash and renilla luciferase reporter. In both Hh and Wnt activity assays, renilla luciferase reporter activity, or mass of protein, was used to normalize expression values. Luciferase signal was read by TopCount NX Microplate Scintillation and Luminescence Counter (Perkin Elmer). Quantitative PCR probes for Ptch1, Gli1, and β-actin were purchased from Applied Biosystems. Reactions and measurements were performed using on an Applied Biosystems 7900HT at Harvard FAS Center of System Biology. β-actin was used to normalize Ptch1 and Gil1 values.
# [1] = system: Hh pathway activation induced by loss of suFU; assay: Gli-luciferase assay in suFU−/− mouse embryonic fibroblasts; conditions: suFU−/− cells
# Protocol: as §5
# ShhLightII cells and SmoM2/LightII cells were cultured and treated in 96 well assay plates (Corning) and incubated with Duo-Glo luciferase substrates (Promega) to sequentially measure firefly and renilla luciferase activity. […] Wnt activity was measured following co-transfection of a Top-flash and renilla luciferase reporter. […] Luciferase signal was read by TopCount NX Microplate Scintillation and Luminescence Counter (Perkin Elmer). Quantitative PCR probes for Ptch1, Gli1, and β-actin were purchased from Applied Biosystems. […]
# Hh pathway activity = assay: Gli-luciferase reporter assay, Hh pathway activation by compound alone (NIH/3T3 cells)
# Protocol: as §6
# [2] = system: Smo::EGFP/Ivs::tagRFPT cells; assay: Cytotoxicity in vitro in the high content assay; conditions: doses up to 200 μM
# Protocol: as §4
# Cells were cultured and treated in 384-well imaging plate precoated with poly-D-Lysine (Greiner Bio-one), fixed with 4% paraformaldehyde (Electron Microscopy Sciences), and stained with Hoechst (Invitrogen). Images were collected using Opera High Content Screening System (Perkin Elmer).
# T2 sequence (Q99835 28-787 W535L): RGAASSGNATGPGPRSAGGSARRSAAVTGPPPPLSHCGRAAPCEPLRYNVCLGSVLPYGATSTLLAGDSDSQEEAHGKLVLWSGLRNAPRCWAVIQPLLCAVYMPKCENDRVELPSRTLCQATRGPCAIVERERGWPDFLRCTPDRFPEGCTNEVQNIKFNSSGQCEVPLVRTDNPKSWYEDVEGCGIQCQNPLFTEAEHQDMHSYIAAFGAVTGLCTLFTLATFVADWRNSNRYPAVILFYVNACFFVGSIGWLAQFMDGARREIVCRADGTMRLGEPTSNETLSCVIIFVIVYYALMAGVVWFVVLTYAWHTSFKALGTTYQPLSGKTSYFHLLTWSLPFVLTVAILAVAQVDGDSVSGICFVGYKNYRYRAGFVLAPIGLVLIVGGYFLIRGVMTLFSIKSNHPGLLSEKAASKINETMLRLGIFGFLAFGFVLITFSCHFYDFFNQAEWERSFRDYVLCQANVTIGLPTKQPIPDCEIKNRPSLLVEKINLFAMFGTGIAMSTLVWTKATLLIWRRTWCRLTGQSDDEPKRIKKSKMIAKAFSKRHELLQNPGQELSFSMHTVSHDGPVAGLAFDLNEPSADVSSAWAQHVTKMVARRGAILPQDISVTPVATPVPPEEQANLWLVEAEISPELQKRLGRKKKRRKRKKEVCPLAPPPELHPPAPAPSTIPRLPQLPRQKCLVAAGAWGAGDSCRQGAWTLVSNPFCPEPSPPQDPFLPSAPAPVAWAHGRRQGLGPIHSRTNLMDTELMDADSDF
# T1 sequence (Q99835 28-787): as the sequence (Q99835 28-787 W535L) above, with L508W counted along it
IC50 (Smo::EGFP) [µM],IC50 (Smo) [µM],"IC50 (SmoM2::GFP; 3T3/SmoM2::GFP Overexpression/Ivs::tagRFPT, stimulus none, read-out: IC50, inhibition of ciliary localization of SmoM2::GFP) [µM]",effect on SmoM2 ciliary localization (SmoM2::GFP; SmoM2::EGFP overexpressing cells),"IC50 (SmoM2; Mus musculus, Shh Light II, 3T3/SmoM2::GFP Overexpression/Shh-LightII, stimulus none, read-out: IC50, inhibition of expression of Gli-luciferase reporter induced by SmoM2::GFP overexpression) [µM]",effect on Hh pathway activation induced by loss of suFU [1],"EC50 (Hh pathway activity; Mus musculus, NIH3T3, Gli-luciferase reporter, compound alone, read-out: EC50 for weak transcriptional activation) [µM]",Compound,"effect on SmoM2 driven Hh pathway activity, transcriptional reporter (SmoM2; SmoM2 overexpression)",Hh pathway activation in transcription reporter assay (Hh pathway activity; FA 10 μM),transcriptional response in Gli-luciferase reporter assay (Hh pathway activity; FA >50 μM) [fold],cytotoxic effects in vitro [2]
0.8,> 30,> 30,failed to inhibit,> 30,does not alter,–,CCN(CC)c1ccc(/C=N/NC(=O)c2ccc(O)cc2)cc1 [DY131],failed to inhibit,–,–,–
–,–,–,–,–,–,> 50,"CC1(C)O[C@@H]2C[C@H]3[C@@H]4C[C@H](F)C5=CC(=O)C=C[C@]5(C)[C@@]4(F)[C@@H](O)C[C@]3(C)[C@]2(C(=O)CO)O1 [FA, fluocinolone acetonide]",–,no pathway activation was observed,4,no obvious cytotoxic effects
